Test results published in PMC10023787, “Trio-pharmacophore DNA-encoded chemical library for simultaneous selection of fragments and linkers” (Nature Communications, 2023).
Like-named read-outs stand apart in the source and are kept apart here. Values belong to the molecule of their own block, whether it stands above or below them.

Experiments:
[1] = target: T1, MMP-9 (Homo sapiens, UniProt P14780); test: MMP-9 inhibition assay (fluorogenic peptide substrate); format: biochemical; parameters: remaining enzyme activity (% of control): scale not given here; settings: for IC50: n.d: not detected
T1 construct: purchased Sino Biological 10327-HNAH
Method in brief: (§1)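 Human proMMP-2 and proMMP-9 were activated with 1 mM APMA for 2 h at 37 °C, then used at 6.5 nM (MMP-2) or 10 nM (MMP-9) final in Tris/NaCl/CaCl2/Brij 35 buffer, pH 7.5. After 30 min preincubation with compound at RT, 25 μM FRET peptide substrate was added and fluorescence (ex 280/em 360 nm) followed for 30 min. IC50 came from logistic fits of Vmax.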

[2] = target: T2, MMP-2 (Homo sapiens, UniProt P08253); test: MMP-2 inhibition assay (fluorogenic peptide substrate); format: biochemical; settings: for IC50: n.d: not detected
T2 construct: purchased Sino Biological 10082-HNAH
T2 sequence (P08253 110-660): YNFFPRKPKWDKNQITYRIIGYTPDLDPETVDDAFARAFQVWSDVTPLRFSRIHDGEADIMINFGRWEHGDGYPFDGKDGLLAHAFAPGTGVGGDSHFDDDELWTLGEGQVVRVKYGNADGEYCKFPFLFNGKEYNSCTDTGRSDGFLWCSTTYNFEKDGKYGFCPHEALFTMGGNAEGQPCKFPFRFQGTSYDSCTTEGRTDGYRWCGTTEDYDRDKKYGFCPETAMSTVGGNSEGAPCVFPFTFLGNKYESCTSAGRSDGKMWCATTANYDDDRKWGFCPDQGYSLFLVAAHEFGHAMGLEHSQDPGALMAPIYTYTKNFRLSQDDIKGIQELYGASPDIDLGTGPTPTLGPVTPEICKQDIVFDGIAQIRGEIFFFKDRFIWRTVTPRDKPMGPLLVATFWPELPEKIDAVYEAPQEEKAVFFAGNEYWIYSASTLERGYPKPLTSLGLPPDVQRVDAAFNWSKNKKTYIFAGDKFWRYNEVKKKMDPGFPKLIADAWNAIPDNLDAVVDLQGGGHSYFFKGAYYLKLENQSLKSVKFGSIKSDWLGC
Method in brief: as §1

[3] = mean ± SE, Fig. 5e prints no unit, µM, read-out: IC50
[4] = mean ± SE, Fig. 5d unit inferred, µM, read-out: IC50
[5] = Figure 5d, fragment combination joined by linker, read-out: MMP9 IC50
[6] = Figure 5d, fragment combination joined by linker, read-out: MMP2 IC50

T1 sequence (P14780 107-707 limits assumed): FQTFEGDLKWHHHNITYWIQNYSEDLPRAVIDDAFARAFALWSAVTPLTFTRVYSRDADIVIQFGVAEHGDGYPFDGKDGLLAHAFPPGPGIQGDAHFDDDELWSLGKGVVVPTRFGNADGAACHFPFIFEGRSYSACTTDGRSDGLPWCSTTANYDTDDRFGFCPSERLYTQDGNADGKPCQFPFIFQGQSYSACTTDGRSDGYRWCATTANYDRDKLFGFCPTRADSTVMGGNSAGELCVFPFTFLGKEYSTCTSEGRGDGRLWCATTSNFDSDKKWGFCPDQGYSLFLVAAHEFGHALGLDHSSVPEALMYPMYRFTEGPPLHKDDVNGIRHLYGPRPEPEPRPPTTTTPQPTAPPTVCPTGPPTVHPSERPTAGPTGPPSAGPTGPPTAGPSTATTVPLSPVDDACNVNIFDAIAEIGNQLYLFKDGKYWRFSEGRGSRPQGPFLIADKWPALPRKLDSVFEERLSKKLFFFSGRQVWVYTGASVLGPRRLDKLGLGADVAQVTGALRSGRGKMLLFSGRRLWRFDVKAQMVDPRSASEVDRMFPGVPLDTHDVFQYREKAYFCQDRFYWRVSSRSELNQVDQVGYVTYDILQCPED

- remaining enzyme activity (% of control) ([1]; MMP-9, concentration 0.0855 µM): 86.26
- remaining enzyme activity (% of control) ([1]; MMP-9, concentration 0.43 µM): 83.15
- remaining enzyme activity (% of control) ([1]; MMP-9, concentration 2.14 µM): 95.29
- remaining enzyme activity (% of control) ([1]; MMP-9, concentration 10.69 µM): 93.78
- remaining enzyme activity (% of control) ([1]; MMP-9, concentration 53.44 µM): 70.78
- remaining enzyme activity (% of control) ([1]; MMP-9, concentration 267.20 µM): 19.03
- IC50 [1, 3]: 126 ± 9.6 µM
- remaining activity (%) ([2]; MMP-2, concentration 0.0171 µM): 92.17
- remaining activity (%) ([2]; MMP-2, concentration 0.0855 µM): 86.66
- remaining activity (%) ([2]; MMP-2, concentration 0.43 µM): 97.11
- remaining activity (%) ([2]; MMP-2, concentration 2.14 µM): 88.49
- remaining activity (%) ([2]; MMP-2, concentration 10.69 µM): 87.27
- remaining activity (%) ([2]; MMP-2, concentration 53.44 µM): 39.59
- remaining activity (%) ([2]; MMP-2, concentration 267.20 µM): 13.68
- IC50 [2, 4]: 45.9 ± 16.2 µM
SMILES: O=C(CSCCNC(=O)Cn1cnc2c(oc3ccccc32)c1=O)NCc1c[nH]nn1 [182+787 Linker 24]

- IC50 [1, 5]: 201 µM
- IC50 [2, 6]: 186 µM
SMILES: Cc1cc(=O)[nH]c(-n2nc(C)c(CCC(=O)NCCOCCOCCNC(=O)c3cncc(O)c3)c2C)n1 [693_828 10]

- remaining enzyme activity (% of control) ([1]; MMP-9, concentration 0.07 µM): 99.26
- remaining enzyme activity (% of control) ([1]; MMP-9, concentration 0.33 µM): 98.95
- remaining enzyme activity (% of control) ([1]; MMP-9, concentration 1.67 µM): 95.42
- remaining enzyme activity (% of control) ([1]; MMP-9, concentration 8.34 µM): 94.84
- remaining enzyme activity (% of control) ([1]; MMP-9, concentration 41.72 µM): 86.90
- remaining enzyme activity (% of control) ([1]; MMP-9, concentration 208.60 µM): 67.40
- remaining enzyme activity (% of control) ([1]; MMP-9, concentration 1043.00 µM): 51.64
- remaining activity (%) ([2]; MMP-2, concentration 0.07 µM): 89.74
- remaining activity (%) ([2]; MMP-2, concentration 0.33 µM): 85.09
- remaining activity (%) ([2]; MMP-2, concentration 1.67 µM): 89.74
- remaining activity (%) ([2]; MMP-2, concentration 8.34 µM): 82.52
- remaining activity (%) ([2]; MMP-2, concentration 41.72 µM): 81.27
- remaining activity (%) ([2]; MMP-2, concentration 208.60 µM): 74.95
- remaining activity (%) ([2]; MMP-2, concentration 1043.00 µM): 25.65
- remaining activity (%) ([2]; MMP-2, concentration […]): 97.97
- IC50 [2, 4]: 578 ± 96 µM
SMILES: O=C(CCC(=O)NCc1c[nH]nn1)NCCOCCOCCNC(=O)CNC(=O)NC12CC3CC(CC(C3)C1)C2 [66+787 Linker 10]

- remaining enzyme activity (% of control) ([1]; MMP-9, concentration 0.12 µM): 94.26
- remaining enzyme activity (% of control) ([1]; MMP-9, concentration 0.49 µM): 94.53
- remaining enzyme activity (% of control) ([1]; MMP-9, concentration 1.95 µM): 79.71
- remaining enzyme activity (% of control) ([1]; MMP-9, concentration 7.81 µM): 87.21
- remaining enzyme activity (% of control) ([1]; MMP-9, concentration 31.25 µM): 75.62
- remaining enzyme activity (% of control) ([1]; MMP-9, concentration 125.00 µM): 66.17
- remaining enzyme activity (% of control) ([1]; MMP-9, concentration 500.00 µM): 43.49
- IC50 [1, 3]: 283 ± 84.3 µM
- remaining activity (%) ([2]; MMP-2, concentration 0.12 µM): 104.96
- remaining activity (%) ([2]; MMP-2, concentration 0.49 µM): 102.80
- remaining activity (%) ([2]; MMP-2, concentration 1.95 µM): 96.45
- remaining activity (%) ([2]; MMP-2, concentration 7.81 µM): 96.46
- remaining activity (%) ([2]; MMP-2, concentration 31.25 µM): 89.20
- remaining activity (%) ([2]; MMP-2, concentration 125.00 µM): 71.67
- remaining activity (%) ([2]; MMP-2, concentration 500.00 µM): 58.28
SMILES: Cn1c(O)nc2cc(C(=O)NCCOCCOCCNC(=O)Cn3cnc4c(oc5ccccc54)c3=O)cnc21 [182+826 Linker 10]

- IC50 [1, 5]: 99.6 µM
- IC50 [2, 6]: 43 µM
SMILES: O=C(Cn1cnc2c(oc3ccccc32)c1=O)NCCOCCOCCNC(=O)c1cncc(O)c1 [182_828 10]

- remaining enzyme activity (% of control) ([1]; MMP-9, concentration 0.08 µM): 100.62
- remaining enzyme activity (% of control) ([1]; MMP-9, concentration 0.39 µM): 94.43
- remaining enzyme activity (% of control) ([1]; MMP-9, concentration 1.95 µM): 101.63
- remaining enzyme activity (% of control) ([1]; MMP-9, concentration 9.75 µM): 94.48
- remaining enzyme activity (% of control) ([1]; MMP-9, concentration 48.76 µM): 72.77
- remaining enzyme activity (% of control) ([1]; MMP-9, concentration 243.80 µM): 28.00
- remaining enzyme activity (% of control) ([1]; MMP-9, concentration 1219.00 µM): 0.00
- IC50 [1, 3]: 126 ± 12 µM
- remaining activity (%) ([2]; MMP-2, concentration 0.0156 µM): 104.21
- remaining activity (%) ([2]; MMP-2, concentration 0.08 µM): 112.47
- remaining activity (%) ([2]; MMP-2, concentration 0.39 µM): 110.12
- remaining activity (%) ([2]; MMP-2, concentration 1.95 µM): 98.52
- remaining activity (%) ([2]; MMP-2, concentration 9.75 µM): 97.01
- remaining activity (%) ([2]; MMP-2, concentration 48.76 µM): 78.57
- remaining activity (%) ([2]; MMP-2, concentration 243.80 µM): 30.14
- remaining activity (%) ([2]; MMP-2, concentration 1219.00 µM): 0.00
- IC50 [2, 4]: 137 ± 37.5 µM
SMILES: O=C(CCC(=O)NCc1c[nH]nn1)NCCOCCOCCNC(=O)Cn1cnc2c(oc3ccccc32)c1=O [182+787 Linker 10]

- IC50 [1, 5]: 250 µM
- IC50 [2, 6]: 169 µM
SMILES: Cc1cc(=O)[nH]c(-n2nc(C)c(CCC(=O)NCCCCCCCCNC(=O)CCC(=O)NCc3c[nH]nn3)c2C)n1 [693_787 4]

- remaining enzyme activity (% of control) ([1]; MMP-9, concentration 0.0429 µM): 93.34
- remaining enzyme activity (% of control) ([1]; MMP-9, concentration 0.21 µM): 95.33
- remaining enzyme activity (% of control) ([1]; MMP-9, concentration 1.07 µM): 103.77
- remaining enzyme activity (% of control) ([1]; MMP-9, concentration 5.36 µM): 97.03
- remaining enzyme activity (% of control) ([1]; MMP-9, concentration 26.80 µM): 82.56
- remaining enzyme activity (% of control) ([1]; MMP-9, concentration 670.10 µM): 15.33
- remaining enzyme activity (% of control) ([1]; MMP-9, concentration […]): 65.61
- IC50 [1, 3]: 216 ± 47.3 µM
- remaining activity (%) ([2]; MMP-2, concentration 0.00858 µM): 98.41
- remaining activity (%) ([2]; MMP-2, concentration 0.0429 µM): 98.85
- remaining activity (%) ([2]; MMP-2, concentration 0.21 µM): 87.72
- remaining activity (%) ([2]; MMP-2, concentration 1.07 µM): 96.38
- remaining activity (%) ([2]; MMP-2, concentration 5.36 µM): 85.18
- remaining activity (%) ([2]; MMP-2, concentration 26.80 µM): 89.19
- remaining activity (%) ([2]; MMP-2, concentration 670.10 µM): 1.11
- remaining activity (%) ([2]; MMP-2, concentration […]): 61.21
- IC50 [2, 4]: 184 ± 17.3 µM
SMILES: O=C(CSCCNC(=O)c1cncc(O)c1)NCC12CC3CC(CC(C3)C1)C2 [66+828 Linker 24]

- IC50 [1, 5]: 45.6 µM
- IC50 [2, 6]: 68.4 µM
SMILES: Cc1cc(=O)[nH]c(-n2nc(C)c(CCC(=O)NCCNC(=O)CC(=O)/C=C/CCCCNC(=O)CCC(=O)NCc3c[nH]nn3)c2C)n1 [693_787 12]

- remaining activity at 0.0548 µM ([1]; MMP-9, concentration 0.0548 µM, read-out: Mean (MMP-9, Supplementary fig 16)): 95.4%
- remaining activity at 0.27 µM ([1]; MMP-9, concentration 0.27 µM, read-out: Mean (MMP-9, Supplementary fig 16)): 85.7%
- remaining activity at 1.37 µM ([1]; MMP-9, concentration 1.37 µM, read-out: Mean (MMP-9, Supplementary fig 16)): 87.6%
- remaining activity at 6.86 µM ([1]; MMP-9, concentration 6.86 µM, read-out: Mean (MMP-9, Supplementary fig 16)): 77.5%
- remaining activity at 34.28 µM ([1]; MMP-9, concentration 34.28 µM, read-out: Mean (MMP-9, Supplementary fig 16)): 52.4%
- remaining activity at 171.4 µM ([1]; MMP-9, concentration 171.40 µM, read-out: Mean (MMP-9, Supplementary fig 16)): 0%
- remaining activity at 857 µM ([1]; MMP-9, concentration 857.00 µM, read-out: Mean (MMP-9, Supplementary fig 16)): 0%
- IC50 [1, 3]: 35.3 ± 15 µM
- remaining activity at 0.011 µM ([2]; MMP-2, concentration 0.011 µM, read-out: Mean (MMP-2, Supplementary fig 16)): 96.4%
- remaining activity at 0.0548 µM ([2]; MMP-2, concentration 0.0548 µM, read-out: Mean (MMP-2, Supplementary fig 16)): 104%
- remaining activity at 0.27 µM ([2]; MMP-2, concentration 0.27 µM, read-out: Mean (MMP-2, Supplementary fig 16)): 97.6%
- remaining activity at 1.37 µM ([2]; MMP-2, concentration 1.37 µM, read-out: Mean (MMP-2, Supplementary fig 16)): 90.8%
- remaining activity at 6.86 µM ([2]; MMP-2, concentration 6.86 µM, read-out: Mean (MMP-2, Supplementary fig 16)): 86.3%
- remaining activity at 34.28 µM ([2]; MMP-2, concentration 34.28 µM, read-out: Mean (MMP-2, Supplementary fig 16)): 48.6%
- remaining activity at 171.4 µM ([2]; MMP-2, concentration 171.40 µM, read-out: Mean (MMP-2, Supplementary fig 16)): 5.35%
- remaining activity at 857 µM ([2]; MMP-2, concentration 857.00 µM, read-out: Mean (MMP-2, Supplementary fig 16)): 0%
- IC50 [2, 4]: 33.3 ± 6.4 µM
SMILES: O=C(CSCCNC(=O)c1cncc(O)c1)NCCNC(=O)Cn1cnc2c(oc3ccccc32)c1=O [182+828 Linker 24]

- IC50 [1, 5]: 134 µM
- IC50 [2, 6]: 193 µM
SMILES: O=C(CCC(=O)NCc1c[nH]nn1)NCCCCCCCCNC(=O)Cn1cnc2c(oc3ccccc32)c1=O [182_787 4]
